Marks after values point to notes of the source that are not given here.
Assays:
[1] = system: wild-type C. elegans (N2); assay: C. elegans N2 lifespan assay at 20° C. with peptide feeding; format: in vivo; settings: N2 worms
Method: A schematic of an assay of C. elegans N2 lifespan at 20° C. is shown (FIG. 10A). This involved peptide treatment (50 μg) with E. coli OP50 as a food source. Plates were changed every second day with 50 μg fresh peptide and OP50. Scoring of survival was done every day to the last day of survival. 50 mM FUdR was added in experimental plates between D1 and D5 to prevent progeny production.

[2] = system: C. elegans (N2 strain); assay: Thermotolerance assay, continuous heat stress at 35° C.; format: in vivo; settings: N2 worms
Method: The lifespan of wild type C. elegans with and without peptide at a restrictive temperature was measured.
A schematic representation of the thermotolerance assay used is shown (FIG. 11A). 24 hours of 50 μg peptide treatment at 20° C. of a synchronized population of wild type C. elegans was followed by a continuous heat stress at 35° C. Worms were scored every two hours for 24 hours for survival.

[3] = system: CL2006 C. elegans; assay: CL2006 lifespan at 20° C. (paralysis and death model); format: in vivo; settings: CL2006 worms, 50 μg peptide
Method: CL2006 C. elegans were used as a paralysis and death model. Worms are maintained at 15° C., with adult onset paralysis induced at 20° C.
50 μg CPAMC and CPPRAMC peptide or controls were added to CL2006 worms, and the fraction left alive over time at the restrictive temperature of 20° C. was quantified (FIG. 12). […] (FIG. 12).

[4] = system: CL4176 C. elegans; assay: CL4176 Aβ-induced paralysis and survival assay; format: in vivo; settings: CL4176 worms
Method: CL4176 C. elegans is a temperature sensitive strain. Worms are maintained at 15° C. and shifted to increased temperature to cause Aβ-induced paralysis in adults. This has been used as a C. elegans model of Alzheimer's disease.
A scheme of a paralysis assay with CL4176 worms is shown (FIG. 13A). Peptide treatment began on CL4176 embryos and continued throughout the experiment. After 2 days at 15° C., the temperature was increased to the restrictive temperature of 25° C. Worms were scored for survival and paralysis.
Example images of paralyzed and non-paralyzed worms are shown (FIG. 13C).

[5] = system: C. elegans wild-type (N2 strain); assay: Paraquat (PQ)-induced oxidative stress survival; format: in vivo; settings: five-day old N2 worms, 50 μg peptide 24 hours, 50 mM PQ
Method: Five-day old N2 worms were pretreated with 50 μg peptide for 24 hours and subjected to 50 mM PQ. The survival of the worms was monitored every hour under a microscope until the end of survival. […] The median survival value (50% survival) in CPPRAMC, CPAMC, and CP-SC (control) peptides corresponds to 9.6 h, 8.9 h and 5.9 h, respectively, as compared to vehicle control (5.5 h) (FIG. 14).

[6] = system: C. elegans (N2) worms; assay: Juglone (JG)-induced oxidative stress survival; format: in vivo; settings: N2 worms at day 5, 50 μg peptide 24 h, 50 μM JG
Method: N2 worms at day 5 pretreated for 24 h with 50 μg CPAMC or CP-SC (control) and subjected to 50 μM JG. Survival was checked every hour under a microscope until the end of survival. The median survival value in CPAMC and CP-SC (control) peptides corresponds to 7.3 h and 5.9 h, respectively, compared to vehicle control (4.9 h) (FIG. 15).

[7] = system: human red blood cells; assay: Melittin-induced hemolysis of human RBC; format: cell-based; settings: 2% human RBC, room temperature 30 min, OD 540 nm
Method: Hemolysis of human red blood cells with melittin was measured with varying concentrations of CPAMC (FIG. 3). To 0.3 mL of 2% human RBC (red blood cell) suspension was added 2 μM melittin and/or peptides taken in 0.7 mL of PBS. The tubes were incubated at room temperature for 30 min, centrifuged, and the OD of the supernatant was measured at 540 nm. PBS and PBS containing 0.1% TritonX-100 served as negative and positive control, respectively.
The protective effect of Myr-CPAMC peptide of human red blood cells (RBC) from melittin-induced hemolysis was also examined. To 0.3 mL of 2% human RBC suspension was added to melittin and/or peptide taken in 0.7 mL of PBS. The tubes were incubated at room temperature for 30 min, centrifuged (FIG. 5A) and the OD of the supernatant was measured at 540 nm. PBS and PBS containing 0.1% TritonX-100 served as negative and positive control, respectively.

[8] = system: human primary lens epithelial (HLE-1°) cells; assay: Melittin cytotoxicity, cell viability imaging; format: cell-based; settings: 1 μM melittin, 45 min
Method: The ability of CPAMC peptide to block the cytotoxic action of melittin on human primary lens epithelial (HLE-1°) cells was investigated. Cell viability imaging was performed with dead cells identified by fluorescent staining. HLE-1° cells cultured on a 96-well plate were treated with 1 μM melittin and/or different concentrations of CPAMC peptide for 45 min. At the end of the incubation, cell viability imaging was done using the EarlyTox cell integrity kit (Molecular Devices, Sunnyvale, Calif.) (FIG. 4A). The percentage of dead cells in each sample was calculated from the live/dead cell imaging data using the Softmax Pro software (FIG. 4B).

[9] = system: ARPE-19 cells; assay: Sodium iodate-induced oxidative stress, DCFH-DA staining; format: cell-based; settings: 7.5 mM sodium iodate, 24 hrs
Method: The ability of CPPRAMC and CPAMC to suppress sodium iodate-induced oxidative stress in ARPE-19 cells was also assessed. ARPE-19 cells seeded on a 96-well plate were treated with 7.5 mM of sodium iodate and peptides in 100 μl of serum-free DMEM/F12 media for 24 hrs. The cells were then stained with 10 μM DCFH-DA for 30 min at 37° C. in the dark and the cells were observed under the EVOS FL Auto2 imaging system (Thermo Fisher Scientific, Waltham, Mass., USA) with 10× magnification.

[10] = system: HEK293 IL-6 reporter cells; assay: IL-6 signaling, STAT3-stimulated SEAP reporter; format: cell-based; settings: human recombinant IL-6 and peptides, 1 hr
Method: HEK293 IL-6 reporter cells were treated with human recombinant IL-6 and the peptides for 1 hr. The STAT3-stimulated SEAP activity in the culture supernatant was measured using QUANTI-Blue solution (InvivoGen) (FIG. 19B).

“CH3-LFVIFLVHFSPGRDEDKDEK-NH2 (Me-LFVIFLVHFSPGRDEDKDEK-NH2) [CPAMC, Cell-penetrable, amphiphilic mini chaperone synthesized with L-amino acids]” was tested, and the “Median Lifespan (Days ± SE)” value ([1]; 50 μg peptide with E. coli OP50) was 18.23 ± 0.25 days, the “Increase in median survival (%)” value ([1]; 50 μg peptide, vs control) was 36* % and the “% increase in survival” value ([2]; 35° C., 50 μg peptide, vs control) was 31* %. The “Median survival ± SE (hours at 35° C.)” value ([2]; 24 hours 50 μg peptide at 20° C., then 35° C.) was 11.0 ± 0.4 h, the “Median survival ± SE (days at 20° C.)” value [3] was 7.7 ± 0.28 days and the “% increase in survival” value ([3]; vs control) was 11.6%. For the same substance, the “delay of Aβ-induced paralysis” value ([4]; 25° C.) was “delay of CL4176 worm paralysis compared to controls”, the “% increase in median survival” value ([4]; 25° C., vs control) was 12% and the “Median survival Hours ± SE” value ([4]; 2 days at 15° C., then 25° C.) was 49.6 ± 0.5 h. For the same substance, the “median survival value (50% survival)” value [5] was 8.9 h, the median survival value [6] was 7.3 h and the “hemolysis by melittin in presence of peptide” value [7] was “Hemolysis decreased as concentration of CPAMC increased”. The “percentage of dead cells with melittin and peptide” value [8] was “blocks the cytotoxic action of melittin”, the “oxidative stress by DCFH-DA staining” value [9] was “reduce or block the oxidative stress induced by sodium iodate” and the “IL-6 signaling (STAT3-stimulated SEAP activity)” value [10] was “IL-6 signaling is also suppressed”.

Reference: patent US11911436B2, “Amphiphilic peptide chaperones and methods of use” (priority 2021, dated 2024)
